Data set [1] is described as follows: retention time on BEH HILIC column (20 min gradient, 0.4 mL/min); higher = later elution. As to conditions: LC: HILIC. How it is done: (§1)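 Reference standards (20-100 uM) were separated by HILIC UPLC (BEH HILIC, 45 °C): acidic pH 3.0 ammonium formate/formic acid for ESI+ and basic pH 9.0 ammonium acetate/ammonia for ESI-. They were analysed on a Synapt G2-Si traveling-wave IMS-QTOF with nitrogen drift gas (WH 30 V; WV 800 m/s in ESI+ and 1000 m/s in ESI-).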

A short description of data set [2]: collision cross section (TWIMS, N2) of ion [M-H]-; higher = larger gas-phase ion cross section. To be noted: ionization: ESI negative; LC: HILIC, pH 9.0 ammonium acetate. Here is the method:
as §1

Data set [3] is described as follows: collision cross section (TWIMS, N2) of ion [M+H]+; higher = larger gas-phase ion cross section. To be noted: ionization: ESI positive; LC: HILIC, pH 3.0 ammonium formate. How it is done: as §1
[4] abbreviates: ionization: ESI negative, pH 9.0 ammonium acetate.
Setting [5] is: ionization: ESI positive, pH 3.0 ammonium formate.

In the case of `O=C(O)CC(O)(CC(=O)O)C(=O)O` [Citric acid], in data set [1] (setting [4]), the “retention time on BEH HILIC column” value was determined as 11.1 min. Moreover, the collision cross section in data set [2] is given as 128.76 Å².
With `CCC(C)(O)C(=O)O` (stereo not given) [2-hydroxy-2-methyl butyric acid], the “retention time on BEH HILIC column” value in data set [1] (setting [4]) stood at 1.55 min. The molecule also returned a collision cross section in data set [2] of 124.78 Å².
Turning to `O=C(O)C[C@H](O)C(=O)O` [Malic acid], in data set [1] (setting [4]), the “retention time on BEH HILIC column” value came out at 13 min. This molecule also gave a collision cross section in data set [2] of 118.53 Å².
Turning to `C[C@@H](CC(=O)O)C(=O)O` [Methylsuccinic acid], the “retention time on BEH HILIC column” value in data set [1] (setting [4]) was found to be 1.28 min. The molecule further had a collision cross section in data set [2] of 121.94 Å².
`CCCCC(=O)O` [Valeric acid]: the “retention time on BEH HILIC column” value in data set [1] (setting [4]) was 3.22 min. This molecule registered a collision cross section in data set [2] of 123.48 Å².
Consider `N[C@@H](CCC(=O)O)C(=O)O` [L-glutamic acid], for which the “retention time on BEH HILIC column” value in data set [1] (setting [4]) is 8.21 min. Also, the collision cross section in data set [2] is listed as 125.39 Å².
For the molecule `NCCc1c[nH]c2ccc(O)cc12` [Serotonin], the “retention time on BEH HILIC column” value in data set [1] (setting [4]) came out at 3.73 min. The same molecule showed a collision cross section in data set [2] of 137.88 Å².
`C[C@@H](O)[C@H](N)C(=O)O` [L-threonine]: in data set [1] (setting [4]), the “retention time on BEH HILIC column” value was 7.5 min. Besides, the collision cross section in data set [2] is recorded as 121.54 Å².
For `O=C(O)[C@H]1O[C@H](OP(=O)(O)OP(=O)(O)OC[C@H]2O[C@@H](n3ccc(=O)[nH]c3=O)[C@H](O)[C@@H]2O)[C@H](O)[C@@H](O)[C@@H]1O` [UDPGA] the same measures were 10.4 min and 209.99 Å².
As to `CC(=O)N[C@H]1[C@@H](OP(=O)(O)OP(=O)(O)OC[C@H]2O[C@@H](n3ccc(=O)[nH]c3=O)[C@H](O)[C@@H]2O)O[C@H](CO)[C@@H](O)[C@@H]1O` [UDPAG], the “retention time on BEH HILIC column” value in data set [1] (setting [4]) was found to be 9.42 min. In data set [2], this molecule returned a collision cross section of 219.62 Å².
For `O=P(O)(O)OC[C@H]1O[C@](O)(COP(=O)(O)O)[C@@H](O)[C@@H]1O` [Fructose 1,6-bisphosphate] the same measures were 12.9 min and 159.01 Å².
For `CC[C@H](C)C(=O)C(=O)O` [3-methyl-2-oxopentanoic acid], the “retention time on BEH HILIC column” value in data set [1] (setting [4]) is 1.93 min. For the same molecule, the collision cross section in data set [2] is 126.71 Å².
As for `C[C@H](O)C(=O)O` [Lactic acid], in data set [1] (setting [4]), the “retention time on BEH HILIC column” value was determined as 2.86 min. The same molecule came in with a collision cross section in data set [2] of 116.91 Å².
Consider `N[C@@H]1[C@@H](O)[C@H](O)[C@@H](COP(=O)(O)O)O[C@@H]1O` [Glucosamine 6-phosphate], for which, in data set [1] (setting [4]), the “retention time on BEH HILIC column” value was found to be 12.3 min. Also, the collision cross section in data set [2] was determined as 150.31 Å².
`CCCCCCCCCCCCCC(=O)O` [Myristic acid]: in data set [1] (setting [4]), the “retention time on BEH HILIC column” value was 0.73 min. Moreover, the collision cross section in data set [2] is 168.91 Å².
For `N[C@@H](CO)C(=O)O` [L-serine], in that order: 7.75 min and 118.21 Å².
For `CC[C@H](N)C(=O)O` [2-aminobutyric acid] the same measures were 7.05 min and 121.74 Å².
For `CCCCCCCC(=O)O` [Caprylic acid], in that order: 0.77 min and 141.36 Å².
Take `NCCCNCCCCNCCCN` [Spermine]: the “retention time on BEH HILIC column” value in data set [1] (setting [5]) is 13.9 min. The collision cross section in data set [3] is listed as 150.86 Å².
With `C[C@H](N)C(=O)O` [L-alanine], the “retention time on BEH HILIC column” value in data set [1] (setting [4]) was determined as 7.42 min. Also, the collision cross section in data set [2] came to 117.06 Å².
Regarding `O=C(O)CCC(=O)C(=O)O` [a-ketoglutaric acid], the “retention time on BEH HILIC column” value in data set [1] (setting [4]) was determined as 5.51 min. In data set [2], this molecule came in with a collision cross section of 122.3 Å².
Consider `C[N+](C)(C)C[C@H](O)CC(=O)O` [L-carnitine], for which the “retention time on BEH HILIC column” value in data set [1] (setting [5]) turned out to be 8.64 min. The molecule also came in with a collision cross section in data set [3] of 137.38 Å².
For `CC(C)C(=O)O` [Isobutyric acid], the “retention time on BEH HILIC column” value in data set [1] (setting [4]) was determined as 3.29 min. In data set [2], this molecule had a collision cross section of 118.84 Å².
For `NC(=O)C[C@H](N)C(=O)O` [L-asparagine] the same measures were 8.32 min and 123.48 Å².
For `Nc1ncnc2c1ncn2[C@@H]1O[C@H](COP(=O)(O)OP(=O)(O)O)[C@@H](O)[C@H]1O` [ADP], in that order: 12.6 min and 183.67 Å².
For `CC(C)CC(=O)O` [Isovaleric acid], in that order: 0.9 min and 123.48 Å².
On to `O=P(O)(O)O[C@H]1O[C@H](CO)[C@H](O)[C@H](O)[C@H]1O` [Galactose 1-phosphate], for which the “retention time on BEH HILIC column” value in data set [1] (setting [4]) is 11.8 min. Further, the collision cross section in data set [2] is recorded as 147.62 Å².
For the molecule `O=P(O)(O)OC[C@H]1O[C@@](O)(CO)[C@@H](O)[C@H](O)[C@@H]1O` [D-sedoheptulose 7-phosphate], in data set [1] (setting [4]), the “retention time on BEH HILIC column” value was 9.82 min. In data set [2], this molecule came in with a collision cross section of 150.55 Å².
As to `CCC(CO)C(=O)O` (stereo not given) [2-ethylhydracrylic acid], the “retention time on BEH HILIC column” value in data set [1] (setting [4]) was determined as 1.03 min. The collision cross section in data set [2] was 123.21 Å².
`NC(=O)c1cccnc1` [Niacinamide]: the “retention time on BEH HILIC column” value in data set [1] (setting [5]) amounted to 1.21 min. For the same molecule, the collision cross section in data set [3] came to 123.01 Å².
